Test: molar heat capacity at constant pressure
Conditions: 101.33 kPa, Liquid, heat bridge-scanning calorimeter

CCCCn1cc[n+](C)c1.F[P-](F)(F)(F)(F)F [1-butyl-3-methylimidazolium hexafluorophosphate]
Conditions	molar heat capacity at constant pressure [J/K/mol]
436.99 K	483.11
437.29 K	483.68
437.42 K	483.96
437.56 K	484.53
437.69 K	484.82
437.83 K	485.38
437.96 K	485.1
438.1 K	485.1
438.24 K	484.53
438.37 K	483.96
438.67 K	484.53
438.81 K	484.53
438.94 K	484.82
439.08 K	485.1
439.21 K	484.82
439.35 K	484.82
439.49 K	484.82
439.62 K	485.38
439.76 K	485.95
439.89 K	485.67
440.03 K	485.95
440.32 K	485.1
440.46 K	484.82
440.6 K	484.82
440.73 K	484.82
440.87 K	484.82
441 K	484.82
441.14 K	485.1
441.28 K	484.82
441.41 K	484.53
441.71 K	484.82
441.85 K	485.1
441.98 K	485.1
442.12 K	485.1
442.25 K	485.67
442.39 K	486.52
442.53 K	486.52
442.66 K	485.95
442.8 K	485.95
442.93 K	486.24
443.07 K	486.24
443.37 K	485.95
443.51 K	485.95
443.65 K	485.95
443.78 K	485.95
443.92 K	486.24
444.05 K	485.95
444.19 K	486.24
444.32 K	485.95
444.46 K	486.52
444.76 K	485.95
444.9 K	485.95
445.03 K	485.95
445.17 K	486.24
445.3 K	486.8
445.44 K	486.52
445.58 K	487.37
445.71 K	487.37
445.85 K	486.8
445.99 K	487.09
446.12 K	486.52
446.42 K	487.09
446.55 K	487.09
446.69 K	487.09
446.83 K	487.37
446.96 K	487.94
447.1 K	487.66
447.23 K	487.66
447.37 K	487.37
447.51 K	487.09
447.81 K	489.08
447.94 K	489.65
448.08 K	489.36
448.22 K	488.51
448.35 K	488.23
448.49 K	487.94
448.62 K	487.94
448.76 K	488.23
448.9 K	487.94
449.03 K	487.66
449.17 K	487.94
449.46 K	487.94
449.6 K	487.94
449.74 K	488.79
449.89 K	489.08
450.02 K	489.36
450.16 K	489.08
450.3 K	488.51
450.43 K	488.51
450.57 K	488.23
450.87 K	488.51
451 K	489.08
451.14 K	489.08
451.28 K	488.79
451.41 K	488.51
451.55 K	488.51
451.69 K	488.51
451.82 K	489.08
451.96 K	489.36
452.1 K	489.36
452.23 K	489.08
452.53 K	489.08
452.67 K	488.79
452.8 K	489.65
452.94 K	490.5
453.07 K	491.07
453.21 K	490.5
453.35 K	490.21
453.48 K	489.93
453.62 K	489.65
453.92 K	489.65
454.06 K	489.93
454.2 K	489.93
454.33 K	489.93
454.47 K	489.65
454.61 K	489.65
454.74 K	489.93
454.88 K	489.93
455.02 K	489.93
455.15 K	489.93
455.29 K	489.93
455.59 K	490.5
455.72 K	490.5
455.86 K	490.21
456 K	490.5
456.13 K	490.78
456.28 K	490.78
456.42 K	490.78
456.56 K	490.78
456.69 K	491.07
457 K	491.35
457.13 K	491.35
457.27 K	491.35
457.41 K	491.07
457.54 K	491.07
457.68 K	491.64
457.82 K	491.64
457.95 K	491.64
458.09 K	491.64
458.23 K	492.2
458.37 K	492.49
458.66 K	492.49
458.8 K	492.2
458.93 K	491.92
459.07 K	491.92
459.21 K	491.92
459.35 K	492.2
459.48 K	492.49
459.62 K	492.77
459.76 K	493.34
460.06 K	492.49
460.19 K	492.77
460.33 K	494.19
460.47 K	495.05
460.6 K	494.76
460.74 K	494.48
460.88 K	493.62
461.01 K	493.06
461.15 K	492.77
461.28 K	492.77
461.42 K	493.06
461.72 K	493.34
461.85 K	493.06
461.99 K	492.77
462.12 K	493.06
462.26 K	493.06
462.4 K	492.77
462.53 K	493.34
462.67 K	493.06
462.82 K	493.06
463.12 K	493.34
463.26 K	493.06
463.39 K	493.62
463.53 K	493.34
463.67 K	493.34
463.81 K	493.62
463.94 K	493.62
464.08 K	493.62
464.22 K	493.62
464.35 K	494.48
464.49 K	495.33
464.79 K	497.32
464.92 K	496.18
465.06 K	495.33
465.2 K	494.76
465.34 K	494.48
465.47 K	495.05
465.61 K	495.9
465.75 K	495.9
465.89 K	496.47
466.19 K	494.76
